Test results published in patent publication US6599514B1, “Antifungal composition” (Syngenta Limited, priority 1997, dated 2003).

Legend:
Type in all cases: cell-based
Fusarium culmorum = assay: Antifungal microplate growth inhibition assay (MIC); settings: 48 h, 24° C.; for MIC / concentration required alone to give strong growth inhibition: medium B (½ PDB + 1 mM CaCl2 + 50 mM KCl), agent used alone
Description: (§1) Unless otherwise stated the incubation was carried out at 24° C. for 48 hours. Percentages of fungal growth were estimated by microscopic examination of the microplates after the incubation period. The control microcultures were used as a reference in order to estimate fungal growth inhibition.
(§2) The antifungal potency of the purified proteins was assessed on different food spoilage fungi using the assay described above. Growth of fungi, collection and harvest of fungal spores were done as previously described (Broekaert et al., 1990, FEMS Microbiol. Lett., 69: 55-60).
(§3) The percentage growth inhibition was estimated by microscopic inspection of the microtitre plates, taking the microculture control with no antifungal protein added as a reference for normal fungal growth.
(§4) The Ib-AMP1 pure protein was added to the test solution and mixed with the fungal spore suspension as described above. Following inoculation the plates were incubated at 24° C. for 48 hours. […] A summary of the results obtained is shown on table 14.

Penicillium chrysogenum = assay: Antifungal microplate growth inhibition assay (MIC, growth % of control); settings: for Fungal growth as compared to the control: individual application; for MIC / concentration required alone to give strong growth inhibition: medium B (½ PDB + 1 mM CaCl2 + 50 mM KCl), agent used alone
Description: as §1, §2, §3
(§5) Following inoculation the plates were incubated at 24° C. for 48 hours.
(§6) Chitinase-I and β-1,3-glucanase were extracted and purified from tobacco according to the method published by Sela-Buurlage, M. B., et al., in 1993 (Plant Physiol. 101, 857-863). The purified enzymes were mixed in a 1:1 ratio and then tested for antifungal activity against the food spoilage fungal strains Penicillium roquefortii and P. chrysogenum. The antifungal assays were carried out as described above. Assessment of growth inhibition was carried out by microscopic examination after 48 and 96 hours incubation at 24° C.
(§7) In Colby's formula, E1=X1Y1/100, X1 and Y1 represent growth as a percentage of control with compound A (dosage p) and compound B (dosage q), respectively. E1 is the i5 expected growth as a percentage of control with the mixture A and B (dosage p+q). […] Comparison of the observed and expected percent inhibition responses (Eobs/Eexp) indicates synergism (Eobs/Eexp>1) or antagonism (Eobs/Eexp<1).

Penicillium roquefortii = assay: as above; settings: for MIC / concentration required alone to give strong growth inhibition: medium B (½ PDB + 1 mM CaCl2 + 50 mM KCl), agent used alone; for Fungal growth as compared to the control: individual application
Description: as §1, §2, §3, §5, §6, §7

Alternaria sp. = assay: Antifungal microplate growth inhibition assay (MIC); settings: 48 h, 24° C.; for MIC / concentration required alone to give strong growth inhibition: medium B (½ PDB + 1 mM CaCl2 + 50 mM KCl), agent used alone
Description: as §1, §2, §3, §5

Cladosporium sp. = assay: as above; settings: 48 h, 24° C.; for MIC / concentration required alone to give strong growth inhibition: medium B (½ PDB + 1 mM CaCl2 + 50 mM KCl), agent used alone
Description: as §1, §2, §3, §5

Trichoderma harzianum = assay: as above; settings: 48 h, 24° C.; for MIC / concentration required alone to give strong growth inhibition: medium B (½ PDB + 1 mM CaCl2 + 50 mM KCl), agent used alone
Description: as §1, §2, §3, §5

Mucor plumbeus = assay: as above; settings: medium B (½ PDB + 1 mM CaCl2 + 50 mM KCl), 48 h, 24° C., agent used alone
[1] = tested on: range of food spoilage strains; assay: Antifungal microplate assay, statements on the whole range of strains; settings: 200 ppm (maximum concentration tested), medium B, 48 hours, 24° C.
Description: as §1
The following fungal strains were used: Fusarium culmorum, Penicillium chrysogenum, Penicillium roquefortii, Penicillium commune, Penicillium nalgiovense, Mucor plumbeus, Scopulariopsis brevicaulis, Aspergillus versicolor, Alternaria sp., Cladosporium sp. and Trichoderma harzianum.
as §3, §4

Penicillium commune = assay: Antifungal microplate growth inhibition assay (MIC); settings: medium B (½ PDB + 1 mM CaCl2 + 50 mM KCl), 48 h, 24° C., agent used alone
Description: Unless otherwise stated the incubation was carried out at 24° C. for 48 hours. Percentages of fungal growth were estimated by microscopic examination of the microplates after the incubation period. The control microcultures were used as a reference in order to estimate fungal growth inhibition. […] The antifungal potency of the purified proteins was assessed on different food spoilage fungi using the assay described above. Growth of fungi, collection and harvest of fungal spores were done as previously described (Broekaert et al., 1990, FEMS Microbiol. Lett., 69: 55-60). […] The percentage growth inhibition was estimated by microscopic inspection of the microtitre plates, taking the microculture control with no antifungal protein added as a reference for normal fungal growth.

[2] = medium B, 96 hours, 24° C., used alone
[3] = medium A (½ PDB), protein alone
[4] = medium A (½ PDB), 48 h, 24° C., protein alone

Molecule: COc1ccc(O)c(C(C)(C)C)c1 [BHA, butylated hydroxyanisole]
- MIC / concentration required alone to give strong growth inhibition (Fusarium culmorum): >200 ppm
- Fungal growth as compared to the control (Penicillium chrysogenum; 50 ppm, medium B): 99%
- MIC / concentration required alone to give strong growth inhibition (Penicillium chrysogenum; 48 h, 24° C.): >200 ppm
- MIC / concentration required alone to give strong growth inhibition (Penicillium roquefortii; 48 h, 24° C.): >200 ppm
- MIC / concentration required alone to give strong growth inhibition (Alternaria sp.): >200 ppm
- MIC / concentration required alone to give strong growth inhibition (Cladosporium sp.): >200 ppm
- MIC / concentration required alone to give strong growth inhibition (Trichoderma harzianum): >200 ppm
- MIC / concentration required alone to give strong growth inhibition (Mucor plumbeus): >200 ppm
- Antifungal activity of BHA added alone [1]: no antifungal activity was observed

Molecule: O=C([O-])CN(CCN(CC(=O)[O-])CC(=O)[O-])CC(=O)[O-].[Ca+2].[Na+].[Na+] [CaNa2EDTA, calcium disodium EDTA]
- MIC / concentration required alone to give strong growth inhibition (Penicillium chrysogenum; 48 h, 24° C.): >150 ppm
- MIC / concentration required alone to give strong growth inhibition (Penicillium roquefortii; 48 h, 24° C.): >150 ppm

Molecule: O=C(O)CN(CCN(CC(=O)O)CC(=O)O)CC(=O)O [EDTA]
- MIC / concentration required alone to give strong growth inhibition (Penicillium chrysogenum; 48 h, 24° C.): 200 ppm
- MIC / concentration required alone to give strong growth inhibition (Penicillium roquefortii; 48 h, 24° C.): >200 ppm
- MIC / concentration required alone to give strong growth inhibition (Penicillium commune): >200 ppm

Molecule: C/C=C/C=C/C(=O)[O-].[K+] [K sorbate, potassium sorbate]
- Fungal growth inhibition, % of the controls (Penicillium chrysogenum; K sorbate alone, 96 hours incubation, medium B, strain not told apart from P. roquefortii): 10-20%
- MIC / concentration required alone to give strong growth inhibition (Penicillium chrysogenum; 48 h, 24° C.): 1000 ppm
- Concentration required alone to give strong growth inhibition (Penicillium chrysogenum; [2]): >2,000 ppm
- Fungal growth inhibition, % of the controls (Penicillium roquefortii; K sorbate alone, 96 hours incubation, medium B, strain not told apart from P. chrysogenum): 10-20%
- Fungal growth as compared to the control (Penicillium roquefortii; 500 ppm, medium B): 90%
- MIC / concentration required alone to give strong growth inhibition (Penicillium roquefortii; 48 h, 24° C.): 1500 ppm
- Concentration required alone to give strong growth inhibition (Penicillium roquefortii; [2]): >2,000 ppm

Molecule: CC(O)C(=O)O (stereo not shown) [Lactic acid, lactic acid]
- Fungal growth as compared to the control (Penicillium chrysogenum; 2500 ppm, medium B): 90%
- MIC / concentration required alone to give strong growth inhibition (Penicillium chrysogenum; 48 h, 24° C.): 20,000 ppm

Molecule: O=C([O-])CN(CCN(CC(=O)O)CC(=O)O)CC(=O)[O-].[Na+].[Na+] [Na2H2EDTA, disodium dihydrogen EDTA]
- Fungal growth as compared to the control (Penicillium chrysogenum; 75 ppm, medium B): 90%
- MIC / concentration required alone to give strong growth inhibition (Penicillium chrysogenum; 48 h, 24° C.): >150 ppm

Molecule: O=C([O-])c1ccccc1.[Na+] [Na benzoate, sodium benzoate]
- Fungal growth as compared to the control (Penicillium chrysogenum; 500 ppm, medium B): 99%
- MIC / concentration required alone to give strong growth inhibition (Penicillium chrysogenum; 48 h, 24° C.): 6000 ppm

Molecule: Rs-AFP2: purified antifungal protein of Raphanus sativus (radish) seeds, described in WO93/05153 (QKLCQRPSGTWSGVCGNNNACKNQCIRLEKARHGSCNYVFPAHKCICYFPC; UniProt P30230 30-80, looked up)
- MIC (minimum concentration giving more than 90% growth inhibition) (Fusarium culmorum; [3]): 3.1 ppm
- MIC / concentration required alone to give strong growth inhibition (Fusarium culmorum): 12.5 ppm
- MIC (minimum concentration giving more than 90% growth inhibition) (Penicillium chrysogenum; [4]): >200 ppm
- MIC / concentration required alone to give strong growth inhibition (Penicillium chrysogenum; 48 h, 24° C.): >200 ppm
- Fungal growth as compared to the control (Penicillium roquefortii; 3.1 ppm, medium B): 100%
- MIC (minimum concentration giving more than 90% growth inhibition) (Penicillium roquefortii; [4]): 3 ppm
- MIC / concentration required alone to give strong growth inhibition (Penicillium roquefortii; 48 h, 24° C.): 25 ppm
- MIC (minimum concentration giving more than 90% growth inhibition) (Alternaria sp.; [3]): 6.25 ppm
- MIC / concentration required alone to give strong growth inhibition (Alternaria sp.): 200 ppm
- MIC (minimum concentration giving more than 90% growth inhibition) (Cladosporium sp.; [3]): 100 ppm
- MIC / concentration required alone to give strong growth inhibition (Cladosporium sp.): >200 ppm
- MIC (minimum concentration giving more than 90% growth inhibition) (Trichoderma harzianum; [3]): 200 ppm
- MIC / concentration required alone to give strong growth inhibition (Trichoderma harzianum): >200 ppm
